Assay results taken from patent US20260125400A1, “TYK2 DEGRADERS AND USES THEREOF” (Kymera Therapeutics, Inc., priority 2023, published 2026).

biological target: T1, TYK2 (Homo sapiens, UniProt P29597); experiment: TYK2 MSD degradation in OCI-LY10 cells; assay type: cell-based; conditions: OCI-LY10 cells, 4 to 24 hours incubation
T1 construct: Degradation of TYK2 in cells was quantitatively measured using Meso Scale Discovery (MSD) technology; endogenous in cells; host or cells: OCI-LY10
Protocol: Example 7. TYK2 MSD Degradation
Degradation of TYK2 in cells was quantitatively measured using Meso Scale Discovery (MSD) technology. OCI-LY10 cells were seeded in 96-well plates with a density of 0.4 million cells per well in 100 μl fresh media. Compounds were then added to the assay plates with a final top concentration of 1 to 10 μM in a 1:3 dilution series with total of 9 doses. The assay plates were then incubated for 4 to 24 hours at 37° C. under […]. The assay plates were then centrifuged for 5 minutes, and the cell pellets were treated with 100 μl/well RIPA lysis buffer (Boston Bioproducts, BP-115D) with protease and phosphatase inhibitors (Roche, 05892791001 and 04906837001). To prepare MSD assay plates (MSD, L15XA), the plates were coated with the capture antibody (Santa Cruz Biotechnology, SC-5271) in PBS, at 40 μl/well. The plates were then incubated overnight at 4° C., washed 3 times with 150 μl/well TBST buffer (Cell Signaling Technology, 9997S) and blocked with 150 μl/well blocking buffer (MSD, R93BA-4). Cell lysates were then added to MSD assay plates and the plates were incubated at room temperature for 1 hour. The plates were then washed 3 times with 150 μl/well TBST buffer and 25 μl/well primary detection antibody (Cell Signaling Technology, #9312). The assay plates were then incubated at room temperature for 1 hour, washed 3 times with 150 μl/well TBST buffer, and 25 μl/well secondary detection antibody, SULFO-TAG anti-rabbit antibody (MSD, R32AB-1) were added. The assay plates were then incubated at room temperature for 1 hour, washed 3 times with 150 μl/well TB ST buffer, and 150 μl/well MSD reading buffer (MSD, R92TC-2) were added. The plates were then analyzed by an MSD reader. The data was analyzed by GraphPad Prism and the dose dependent TYK2 degradation was fit using the four-parameter inhibitor vs. response nonlinear regression.
The letter codes for TYK2 DC50 include: A (<1 nM); B (i to <10 nM); C (10 to 100 nM); D (>100 nM); and E (not tested). The letter codes for TYK2 Dmax % include: A (>90%); B (90 to >75%); C (75 to 50%); D (<50%); and E (not tested).

T1 sequence (P29597 whole entry): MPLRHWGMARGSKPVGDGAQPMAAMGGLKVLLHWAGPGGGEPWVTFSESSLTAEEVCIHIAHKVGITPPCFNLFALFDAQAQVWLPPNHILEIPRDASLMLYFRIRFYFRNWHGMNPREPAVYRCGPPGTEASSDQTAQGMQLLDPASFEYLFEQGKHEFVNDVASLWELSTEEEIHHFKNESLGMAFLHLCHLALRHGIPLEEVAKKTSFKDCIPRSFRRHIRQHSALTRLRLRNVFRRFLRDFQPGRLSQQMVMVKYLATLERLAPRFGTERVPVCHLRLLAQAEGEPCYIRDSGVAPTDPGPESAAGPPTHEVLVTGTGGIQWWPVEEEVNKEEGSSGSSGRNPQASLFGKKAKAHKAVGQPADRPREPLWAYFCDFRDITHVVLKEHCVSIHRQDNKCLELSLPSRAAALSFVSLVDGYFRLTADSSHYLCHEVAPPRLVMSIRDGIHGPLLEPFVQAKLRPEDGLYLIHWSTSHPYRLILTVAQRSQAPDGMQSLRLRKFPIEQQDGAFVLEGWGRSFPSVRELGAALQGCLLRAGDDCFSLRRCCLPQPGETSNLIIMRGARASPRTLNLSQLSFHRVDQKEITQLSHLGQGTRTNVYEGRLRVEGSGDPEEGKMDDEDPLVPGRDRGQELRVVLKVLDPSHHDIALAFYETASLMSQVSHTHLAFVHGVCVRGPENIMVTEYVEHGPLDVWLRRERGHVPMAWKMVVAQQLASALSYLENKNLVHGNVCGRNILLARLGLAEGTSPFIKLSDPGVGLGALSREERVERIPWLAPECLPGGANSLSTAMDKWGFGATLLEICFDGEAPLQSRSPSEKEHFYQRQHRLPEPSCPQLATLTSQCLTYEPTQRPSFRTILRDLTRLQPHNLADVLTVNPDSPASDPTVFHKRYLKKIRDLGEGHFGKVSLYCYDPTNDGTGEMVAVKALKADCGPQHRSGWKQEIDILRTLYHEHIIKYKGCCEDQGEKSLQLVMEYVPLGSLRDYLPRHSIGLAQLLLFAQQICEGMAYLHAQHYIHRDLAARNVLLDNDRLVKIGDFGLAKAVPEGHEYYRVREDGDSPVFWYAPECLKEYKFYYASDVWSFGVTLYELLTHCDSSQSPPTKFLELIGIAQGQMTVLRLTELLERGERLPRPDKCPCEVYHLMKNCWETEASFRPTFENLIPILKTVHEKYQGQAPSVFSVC

| Structure (SMILES) | TYK2 MSD OCI-LY10 Dmax % |
| --- | --- |
| CNc1cc(N2CCc3c(-c4cc(CN5CCN(c6cc7c(cc6F)c(N6CCC(=O)NC6=O)nn7C)CC5)ccn4)cccc32)nn2c(C(=O)N[C@@H]3C[C@@H]3F)cnc12 [I-709] | D (D (<50%)) |
| CNc1cc(N2CCc3c(-c4ccc(CN5CCC6(CCN(C(=O)c7cc(F)c(Cl)c(N8CCC(=O)NC8=O)c7)CC6)C(F)(F)C5)cn4)cc(F)cc32)nn2c(C(=O)N[C@@H]3CC[C@H]3OC)cnc12 [I-744] | B (B (90 to >75%)) |
| CNc1cc(N2CCc3c(CN4CCC(N5CCC(N6CCN(C(=O)c7ccc(Cl)c(N8CCC(=O)NC8=O)c7)CC6)CC5)C(F)(F)C4)cccc32)nn2c(C(=O)N[C@@H]3C[C@@H]3F)cnc12 (some centres unmarked) [I-707] | D (D (<50%)) |
| CNc1cc(N2CCc3c(N4CC(CN5CCC(N6CCC7(CCN(C(=O)c8ccc(Cl)c(N9CCC(=O)NC9=O)c8)CC7)CC6)C(F)(F)C5)C4)cccc32)nn2c(C(=O)N[C@@H]3C[C@@H]3F)cnc12 (some centres unmarked) [I-785] | B (B (90 to >75%)) |
| CNc1cc(N2CCc3c(-c4ncc(CN5CC6(CCN(C(=O)c7cc(C)c(Cl)c(N8CCC(=O)NC8=O)c7)CC6(F)F)C5)cc4Cl)cccc32)nn2c(C(=O)N[C@@H]3C[C@@H]3F)cnc12 [I-747] | B (B (90 to >75%)) |
| CNc1cc(N2CCc3c(CN4CC[C@@H](N5CCC6(CCN(C(=O)c7ccc(Cl)c(N8CCC(=O)NC8=O)c7)CC6)CC5)C(F)(F)C4)cccc32)nn2c(C(=O)N[C@@H]3C[C@@H]3F)cnc12 [I-714] | B (B (90 to >75%)) |
| CNc1cc(N2CCc3c(CN4CCC(CN5CCC(N6CCN(C(=O)c7ccc(Cl)c(N8CCC(=O)NC8=O)c7)CC6)CC5)C(F)(F)C4)cccc32)nn2c(C(=O)N[C@@H]3C[C@@H]3F)cnc12 (some centres unmarked) [I-770] | B (B (90 to >75%)) |
| CNc1cc(N2CCc3c(CCN4CCC(N5CCC6(CCN(C(=O)c7ccc(Cl)c(N8CCC(=O)NC8=O)c7)CC6)CC5)C(F)(F)C4)cccc32)nn2c(C(=O)NC3CC3F)cnc12 (centres unmarked) [I-687] | B (B (90 to >75%)) |
| CNc1cc(N2CCc3c2ccc(C)c3CN2CCC(N3CCC4(CCN(C(=O)c5ccc(Cl)c(N6CCC(=O)NC6=O)c5)CC4)CC3)C(F)(F)C2)nn2c(C(=O)N[C@@H]3C[C@@H]3F)cnc12 (some centres unmarked) [I-755] | C (C (75 to 50%)) |
| CNc1cc(N2CCc3c(-c4cc(CN5CCN(CCc6ccc(Cl)c(C7CCC(=O)NC7=O)c6)CC5)ccn4)cccc32)nn2c(C(=O)NC3CC3F)cnc12 (centres unmarked) [I-395] | D (D (<50%)) |
| CNc1cc(N2CCc3c(-c4ccc(CN5CCC6(CCN(C(=O)c7cc(C)c(OC)c(N8CCC(=O)NC8=O)c7)CC6)C(F)(F)C5)cn4)cccc32)nn2c(C(=O)N[C@@H]3C[C@@H]3F)cnc12 [I-757] | B (B (90 to >75%)) |
| CNc1cc(N2CCc3c(N4CCC(CN5CCC6(CC5)CCN(c5ccc(Cl)c(C7CCC(=O)NC7=O)c5)CC6)CC4)cccc32)nn2c(C(=O)N[C@@H]3C[C@@H]3F)cnc12 (some centres unmarked) [I-513] | D (D (<50%)) |

same assay, conditions: OCI-LY10 cells, 4 to 24 hours incubation, read-out: TYK2 MSD OCI-LY10 Rel-DC50

| Structure (SMILES) | DC50 |
| --- | --- |
| CNc1cc(N2CCc3c(-c4cc(CN5CCN(c6cc7c(cc6F)c(N6CCC(=O)NC6=O)nn7C)CC5)ccn4)cccc32)nn2c(C(=O)N[C@@H]3C[C@@H]3F)cnc12 [I-709] | < 10 nM |
| CNc1cc(N2CCc3c(-c4ccc(CN5CCC6(CCN(C(=O)c7cc(F)c(Cl)c(N8CCC(=O)NC8=O)c7)CC6)C(F)(F)C5)cn4)cc(F)cc32)nn2c(C(=O)N[C@@H]3CC[C@H]3OC)cnc12 [I-744] | < 10 nM |
| CNc1cc(N2CCc3c(CN4CCC(N5CCC(N6CCN(C(=O)c7ccc(Cl)c(N8CCC(=O)NC8=O)c7)CC6)CC5)C(F)(F)C4)cccc32)nn2c(C(=O)N[C@@H]3C[C@@H]3F)cnc12 (some centres unmarked) [I-707] | < 10 nM |
| CNc1cc(N2CCc3c(N4CC(CN5CCC(N6CCC7(CCN(C(=O)c8ccc(Cl)c(N9CCC(=O)NC9=O)c8)CC7)CC6)C(F)(F)C5)C4)cccc32)nn2c(C(=O)N[C@@H]3C[C@@H]3F)cnc12 (some centres unmarked) [I-785] | < 10 nM |
| CNc1cc(N2CCc3c(-c4ncc(CN5CC6(CCN(C(=O)c7cc(C)c(Cl)c(N8CCC(=O)NC8=O)c7)CC6(F)F)C5)cc4Cl)cccc32)nn2c(C(=O)N[C@@H]3C[C@@H]3F)cnc12 [I-747] | < 10 nM |
| CNc1cc(N2CCc3c(CN4CC[C@@H](N5CCC6(CCN(C(=O)c7ccc(Cl)c(N8CCC(=O)NC8=O)c7)CC6)CC5)C(F)(F)C4)cccc32)nn2c(C(=O)N[C@@H]3C[C@@H]3F)cnc12 [I-714] | < 1 nM |
| CNc1cc(N2CCc3c(CN4CCC(CN5CCC(N6CCN(C(=O)c7ccc(Cl)c(N8CCC(=O)NC8=O)c7)CC6)CC5)C(F)(F)C4)cccc32)nn2c(C(=O)N[C@@H]3C[C@@H]3F)cnc12 (some centres unmarked) [I-770] | < 10 nM |
| CNc1cc(N2CCc3c(CCN4CCC(N5CCC6(CCN(C(=O)c7ccc(Cl)c(N8CCC(=O)NC8=O)c7)CC6)CC5)C(F)(F)C4)cccc32)nn2c(C(=O)NC3CC3F)cnc12 (centres unmarked) [I-687] | < 1 nM |
| CNc1cc(N2CCc3c2ccc(C)c3CN2CCC(N3CCC4(CCN(C(=O)c5ccc(Cl)c(N6CCC(=O)NC6=O)c5)CC4)CC3)C(F)(F)C2)nn2c(C(=O)N[C@@H]3C[C@@H]3F)cnc12 (some centres unmarked) [I-755] | 10 to 100 nM |
| CNc1cc(N2CCc3c(-c4cc(CN5CCN(CCc6ccc(Cl)c(C7CCC(=O)NC7=O)c6)CC5)ccn4)cccc32)nn2c(C(=O)NC3CC3F)cnc12 (centres unmarked) [I-395] | > 100 nM |
| CNc1cc(N2CCc3c(-c4ccc(CN5CCC6(CCN(C(=O)c7cc(C)c(OC)c(N8CCC(=O)NC8=O)c7)CC6)C(F)(F)C5)cn4)cccc32)nn2c(C(=O)N[C@@H]3C[C@@H]3F)cnc12 [I-757] | < 10 nM |
| CNc1cc(N2CCc3c(N4CCC(CN5CCC6(CC5)CCN(c5ccc(Cl)c(C7CCC(=O)NC7=O)c5)CC6)CC4)cccc32)nn2c(C(=O)N[C@@H]3C[C@@H]3F)cnc12 (some centres unmarked) [I-513] | 10 to 100 nM |

same assay, conditions: TYK2 degradation in OCI-LY10 cells, 4 to 24 hours incubation

| Structure (SMILES) | TYK2 MSD OCI-LY10 Dmax % |
| --- | --- |
| CNc1cc(N2CCc3c(-c4ccc(OC5CC6(CCN(C(=O)c7cc(C)c(Cl)c(N8CCC(=O)NC8=O)c7)CC6)C5)cn4)cccc32)nn2c(C(=O)N[C@@H]3C[C@@H]3F)cnc12 [I-1017] | B (B (90 to >75%)) |
| CNc1cc(N2CC3(CCN(c4ccc5c(c4)n(C)c(=O)n5C4CCC(=O)NC4=O)CC3)c3ccccc32)nn2c(C(=O)NC3CC3)cnc12 (centres unmarked) [I-42] | D (D (<50%)) |
| CNc1cc(N2CCc3c(C#CCN4CCC5(CN(C(=O)c6ccc(Cl)c(N7CCC(=O)NC7=O)c6)C5)C(F)(F)C4)cccc32)nn2c(C(=O)N[C@@H]3C[C@@H]3F)cnc12 [I-370] | D (D (<50%)) |
| CNc1cc(N2CCc3c(-c4ncc(CN5CC6(CCN(C(=O)c7cc(N8CCC(=O)NC8=O)c(OC)cc7F)CC6(F)F)C5)cc4F)cccc32)nn2c(C(=O)N[C@@H]3CC[C@H]3OC)cnc12 [I-1134] | A (A (>90%)) |

same assay, conditions: TYK2 degradation in OCI-LY10 cells, 4 to 24 hours incubation, read-out: TYK2 MSD OCI-LY10 Rel-DC50

| Structure (SMILES) | DC50 |
| --- | --- |
| CNc1cc(N2CCc3c(-c4ccc(OC5CC6(CCN(C(=O)c7cc(C)c(Cl)c(N8CCC(=O)NC8=O)c7)CC6)C5)cn4)cccc32)nn2c(C(=O)N[C@@H]3C[C@@H]3F)cnc12 [I-1017] | < 10 nM |
| CNc1cc(N2CC3(CCN(c4ccc5c(c4)n(C)c(=O)n5C4CCC(=O)NC4=O)CC3)c3ccccc32)nn2c(C(=O)NC3CC3)cnc12 (centres unmarked) [I-42] | > 100 nM |
| CNc1cc(N2CCc3c(C#CCN4CCC5(CN(C(=O)c6ccc(Cl)c(N7CCC(=O)NC7=O)c6)C5)C(F)(F)C4)cccc32)nn2c(C(=O)N[C@@H]3C[C@@H]3F)cnc12 [I-370] | > 100 nM |
| CNc1cc(N2CCc3c(-c4ncc(CN5CC6(CCN(C(=O)c7cc(N8CCC(=O)NC8=O)c(OC)cc7F)CC6(F)F)C5)cc4F)cccc32)nn2c(C(=O)N[C@@H]3CC[C@H]3OC)cnc12 [I-1134] | < 1 nM |
